Results reported in US9988341B2, “Bacterial topoisomerase inhibitors and use thereof” (THE FLORIDA INTERNATIONAL UNIVERSITY BOARD OF TRUSTEES, priority 2016, dated 2018).
pIC50: −log10 of the molar value. Where two headings read alike, the source gives them in different places.

How the values were obtained:
E. coli topoisomerase I = E. coli topoisomerase I (Escherichia coli, UniProt P06612); experiment: Bacterial topoisomerase I relaxation activity inhibition assay (EcTopI); type: biochemical; settings: Table 1; individual compounds tested as crude material; read-out: EcTopI relaxation inhibition (IC50)
Protocol: The relaxation activity of bacterial topoisomerase I was assayed in a buffer containing 10 mM Tris-HCl, pH 8.0, 50 mM NaCl, 0.1 mg/mL gelatin, and 0.5 mM MgCl2. One microliter of the compounds dissolved in DMF (dimethylformamide) or solvent alone was mixed with 10 μl of the reaction buffer containing 10 ng of enzyme before the addition of 9 μl of reaction buffer containing 160 ng of supercoiled pBAD/Thio plasmid DNA purified by cesium chloride gradient as substrate. Following incubation at 37° C. for 30 min, the reactions were terminated by the addition of 4 μl of 50% glycerol, 50 mM EDTA, and 0.5% (v/v) bromophenol blue, and analyzed by agarose gel electrophoresis. The gels were stained in ethidium bromide and photographed under UV light.

Human topoisomerase I = molecular target: T1, Human topoisomerase I (Homo sapiens, UniProt P11387); experiment: Human topoisomerase I relaxation inhibition assay; type: biochemical
T1 construct: purchased TopoGen
T1 sequence (P11387 1-765): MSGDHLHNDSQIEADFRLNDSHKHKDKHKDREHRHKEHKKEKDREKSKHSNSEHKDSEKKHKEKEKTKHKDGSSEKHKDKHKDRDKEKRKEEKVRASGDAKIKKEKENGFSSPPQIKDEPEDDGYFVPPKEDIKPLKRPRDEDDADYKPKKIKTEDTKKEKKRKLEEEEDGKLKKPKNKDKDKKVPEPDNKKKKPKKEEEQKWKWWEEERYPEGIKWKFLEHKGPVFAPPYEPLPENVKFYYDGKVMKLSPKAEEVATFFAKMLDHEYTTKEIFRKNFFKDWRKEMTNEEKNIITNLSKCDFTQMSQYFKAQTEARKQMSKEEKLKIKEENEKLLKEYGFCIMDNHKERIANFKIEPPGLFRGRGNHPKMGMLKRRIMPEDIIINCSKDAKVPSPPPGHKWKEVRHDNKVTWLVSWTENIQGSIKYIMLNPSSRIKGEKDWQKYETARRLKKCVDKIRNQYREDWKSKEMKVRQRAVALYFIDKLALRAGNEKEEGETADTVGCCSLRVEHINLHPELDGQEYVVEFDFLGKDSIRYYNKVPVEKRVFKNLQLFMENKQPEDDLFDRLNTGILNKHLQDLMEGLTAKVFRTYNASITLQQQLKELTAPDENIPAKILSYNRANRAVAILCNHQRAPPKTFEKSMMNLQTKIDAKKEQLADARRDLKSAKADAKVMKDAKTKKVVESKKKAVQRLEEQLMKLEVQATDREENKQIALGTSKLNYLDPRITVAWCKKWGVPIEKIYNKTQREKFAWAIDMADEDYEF
Protocol: Human topoisomerase I (obtained from TopoGen) relaxation assays were carried out with 0.5 U of enzyme in reaction buffer supplied by the manufacturer. The enzyme was mixed with the indicated concentration of compound dissolved before 160 ng of supercoiled pBAD/Thio plasmid DNA was added in the same buffer, for a final volume of 20 μL. Following incubation at 37° C. for 30 minutes, the reactions were terminated with a buffer containing 5% SDS, 0.25% bromophenol blue, and 25% glycerol, and analyzed by agarose gel electrophoresis.

E. coli DNA gyrase = molecular target: T2, E. coli DNA gyrase (Escherichia coli, UniProt P0AES4+P0AES6); experiment: DNA gyrase supercoiling inhibition assay; type: biochemical
T2 construct: purchased New England BioLabs
Protocol: DNA gyrase (obtained from New England BioLabs) supercoiling assays were carried out by mixing the compounds with 2 U of the enzyme in reaction buffer supplied by the manufacturer, followed by the addition of 300 ng of relaxed covalently closed circular DNA was for a final reaction volume of 20 μL. The samples were incubated at 37° C. for 30 minutes before being terminated by the addition of a buffer containing 5% SDS, 0.25% bromophenol blue, and 25% glycerol. The reactions were then analyzed by agarose gel electrophoresis.

Human Topoisomerase IIα = molecular target: T3, Human Topoisomerase IIα (Homo sapiens, UniProt P11388); experiment: Human topoisomerase IIα decatenation inhibition assay; type: biochemical
T3 construct: purchased TopoGen
Protocol: Human Topoisomerase IIα (obtained from TopoGen) assays were carried out by adding the compounds to 180 ng of kinetoplast DNA (kDNA) in the buffer supplied by the manufacturer before the addition of 2 U of the enzyme. The samples were incubated for 15 minutes at 37° C. before the addition of 4 μl of stop buffer containing 5% sarkosyl, 0.0025% bromophenol blue, and 25% glycerol. The reactions were then analyzed by electrophoresis in 1% agarose gels containing 0.5 μg ml^−1 ethidium bromide before being photographed under UV light.

[1] = molecular target: M. tuberculosis topoisomerase I (Mycobacterium tuberculosis, UniProt P9WG49); experiment: biochemical; settings: Table 6; read-out: IC50 M. tuberculosis topoisomerase I
[2] = supercoiling, read-out: IC50 E. coli DNA gyrase

Chain of M. tuberculosis topoisomerase I (P9WG49 whole entry): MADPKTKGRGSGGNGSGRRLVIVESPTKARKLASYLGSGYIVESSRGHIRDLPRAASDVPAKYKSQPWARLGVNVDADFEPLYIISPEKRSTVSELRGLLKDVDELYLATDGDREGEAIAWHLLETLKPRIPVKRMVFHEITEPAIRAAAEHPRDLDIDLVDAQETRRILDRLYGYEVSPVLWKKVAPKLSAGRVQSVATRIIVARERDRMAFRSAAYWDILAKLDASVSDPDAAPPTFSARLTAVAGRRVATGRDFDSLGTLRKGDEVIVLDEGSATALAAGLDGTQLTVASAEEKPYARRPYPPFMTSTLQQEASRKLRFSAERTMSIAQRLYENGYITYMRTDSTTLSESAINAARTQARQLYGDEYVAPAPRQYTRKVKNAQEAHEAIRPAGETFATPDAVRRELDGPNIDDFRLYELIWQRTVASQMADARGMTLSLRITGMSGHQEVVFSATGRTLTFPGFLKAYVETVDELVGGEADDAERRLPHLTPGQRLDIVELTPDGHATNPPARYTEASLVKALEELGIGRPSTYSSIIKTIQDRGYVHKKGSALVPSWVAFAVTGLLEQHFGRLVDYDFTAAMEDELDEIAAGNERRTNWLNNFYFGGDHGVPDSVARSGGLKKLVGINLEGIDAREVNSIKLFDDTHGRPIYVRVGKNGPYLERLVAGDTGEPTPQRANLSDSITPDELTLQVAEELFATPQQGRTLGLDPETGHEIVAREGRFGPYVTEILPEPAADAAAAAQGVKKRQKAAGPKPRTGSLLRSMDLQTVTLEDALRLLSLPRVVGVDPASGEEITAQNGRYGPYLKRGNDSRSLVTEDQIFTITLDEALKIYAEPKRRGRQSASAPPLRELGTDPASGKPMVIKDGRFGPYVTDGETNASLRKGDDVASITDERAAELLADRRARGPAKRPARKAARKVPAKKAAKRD
T3 sequence (P11388 whole entry): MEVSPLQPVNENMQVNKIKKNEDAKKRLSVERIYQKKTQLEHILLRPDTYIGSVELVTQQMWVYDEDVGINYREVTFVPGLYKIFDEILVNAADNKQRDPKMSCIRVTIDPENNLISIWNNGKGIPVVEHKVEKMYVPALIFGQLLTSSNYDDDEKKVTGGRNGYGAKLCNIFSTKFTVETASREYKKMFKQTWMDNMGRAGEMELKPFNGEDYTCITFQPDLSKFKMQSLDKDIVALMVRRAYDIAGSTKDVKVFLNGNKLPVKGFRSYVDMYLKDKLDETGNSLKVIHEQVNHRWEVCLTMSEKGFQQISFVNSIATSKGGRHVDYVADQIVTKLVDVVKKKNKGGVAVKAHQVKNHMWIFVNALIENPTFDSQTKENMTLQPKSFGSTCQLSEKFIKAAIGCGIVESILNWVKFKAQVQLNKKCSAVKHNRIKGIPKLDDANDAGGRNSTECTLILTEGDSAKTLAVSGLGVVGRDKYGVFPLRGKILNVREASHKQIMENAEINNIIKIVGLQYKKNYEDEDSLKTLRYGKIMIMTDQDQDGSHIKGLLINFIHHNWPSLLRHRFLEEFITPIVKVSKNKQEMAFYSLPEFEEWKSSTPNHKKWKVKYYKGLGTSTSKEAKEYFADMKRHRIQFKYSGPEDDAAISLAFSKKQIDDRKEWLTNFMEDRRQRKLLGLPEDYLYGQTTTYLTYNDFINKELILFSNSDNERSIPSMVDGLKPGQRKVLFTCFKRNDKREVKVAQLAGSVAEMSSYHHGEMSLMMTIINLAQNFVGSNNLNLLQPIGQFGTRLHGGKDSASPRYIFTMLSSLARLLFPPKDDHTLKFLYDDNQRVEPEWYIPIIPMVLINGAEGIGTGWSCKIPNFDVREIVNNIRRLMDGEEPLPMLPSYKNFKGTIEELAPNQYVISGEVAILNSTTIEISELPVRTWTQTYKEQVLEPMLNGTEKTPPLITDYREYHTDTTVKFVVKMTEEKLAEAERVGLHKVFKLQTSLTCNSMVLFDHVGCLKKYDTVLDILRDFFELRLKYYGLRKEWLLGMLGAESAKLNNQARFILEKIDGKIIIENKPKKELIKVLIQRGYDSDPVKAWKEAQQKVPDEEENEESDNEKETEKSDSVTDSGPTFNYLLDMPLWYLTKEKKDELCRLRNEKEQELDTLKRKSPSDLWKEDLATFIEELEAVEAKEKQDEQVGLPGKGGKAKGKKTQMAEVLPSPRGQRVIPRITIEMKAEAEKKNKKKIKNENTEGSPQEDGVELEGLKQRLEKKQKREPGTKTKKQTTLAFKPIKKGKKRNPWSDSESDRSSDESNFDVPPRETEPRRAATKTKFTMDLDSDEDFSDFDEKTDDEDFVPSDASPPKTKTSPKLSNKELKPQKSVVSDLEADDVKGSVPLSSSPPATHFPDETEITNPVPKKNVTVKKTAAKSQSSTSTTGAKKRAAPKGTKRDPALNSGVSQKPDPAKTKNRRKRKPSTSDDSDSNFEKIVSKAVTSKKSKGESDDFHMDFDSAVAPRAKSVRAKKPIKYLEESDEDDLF
T2 sequence (P0AES4 whole entry, one chain of several): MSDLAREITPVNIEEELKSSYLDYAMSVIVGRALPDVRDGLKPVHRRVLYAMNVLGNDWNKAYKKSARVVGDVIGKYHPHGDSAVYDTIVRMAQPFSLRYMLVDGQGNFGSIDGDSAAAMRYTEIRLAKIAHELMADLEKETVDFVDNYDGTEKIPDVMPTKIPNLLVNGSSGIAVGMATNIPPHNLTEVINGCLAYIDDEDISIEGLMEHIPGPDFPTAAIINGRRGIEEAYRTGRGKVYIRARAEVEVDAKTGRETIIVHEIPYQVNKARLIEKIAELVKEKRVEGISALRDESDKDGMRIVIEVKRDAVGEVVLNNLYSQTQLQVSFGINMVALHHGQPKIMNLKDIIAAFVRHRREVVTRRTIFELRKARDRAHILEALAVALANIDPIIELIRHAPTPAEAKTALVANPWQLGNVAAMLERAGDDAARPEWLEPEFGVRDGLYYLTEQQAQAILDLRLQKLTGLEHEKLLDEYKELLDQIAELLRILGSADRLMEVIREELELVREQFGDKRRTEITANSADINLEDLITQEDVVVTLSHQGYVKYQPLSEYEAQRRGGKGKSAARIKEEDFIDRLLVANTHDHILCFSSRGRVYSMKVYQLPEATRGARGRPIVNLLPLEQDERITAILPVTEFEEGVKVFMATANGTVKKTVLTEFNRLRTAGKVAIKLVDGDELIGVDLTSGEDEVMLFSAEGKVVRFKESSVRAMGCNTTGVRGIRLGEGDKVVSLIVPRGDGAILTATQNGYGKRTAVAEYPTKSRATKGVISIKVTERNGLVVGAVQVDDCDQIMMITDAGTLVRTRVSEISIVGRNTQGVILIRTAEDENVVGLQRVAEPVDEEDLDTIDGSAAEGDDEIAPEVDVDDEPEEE
Chain of E. coli topoisomerase I (P06612 whole entry): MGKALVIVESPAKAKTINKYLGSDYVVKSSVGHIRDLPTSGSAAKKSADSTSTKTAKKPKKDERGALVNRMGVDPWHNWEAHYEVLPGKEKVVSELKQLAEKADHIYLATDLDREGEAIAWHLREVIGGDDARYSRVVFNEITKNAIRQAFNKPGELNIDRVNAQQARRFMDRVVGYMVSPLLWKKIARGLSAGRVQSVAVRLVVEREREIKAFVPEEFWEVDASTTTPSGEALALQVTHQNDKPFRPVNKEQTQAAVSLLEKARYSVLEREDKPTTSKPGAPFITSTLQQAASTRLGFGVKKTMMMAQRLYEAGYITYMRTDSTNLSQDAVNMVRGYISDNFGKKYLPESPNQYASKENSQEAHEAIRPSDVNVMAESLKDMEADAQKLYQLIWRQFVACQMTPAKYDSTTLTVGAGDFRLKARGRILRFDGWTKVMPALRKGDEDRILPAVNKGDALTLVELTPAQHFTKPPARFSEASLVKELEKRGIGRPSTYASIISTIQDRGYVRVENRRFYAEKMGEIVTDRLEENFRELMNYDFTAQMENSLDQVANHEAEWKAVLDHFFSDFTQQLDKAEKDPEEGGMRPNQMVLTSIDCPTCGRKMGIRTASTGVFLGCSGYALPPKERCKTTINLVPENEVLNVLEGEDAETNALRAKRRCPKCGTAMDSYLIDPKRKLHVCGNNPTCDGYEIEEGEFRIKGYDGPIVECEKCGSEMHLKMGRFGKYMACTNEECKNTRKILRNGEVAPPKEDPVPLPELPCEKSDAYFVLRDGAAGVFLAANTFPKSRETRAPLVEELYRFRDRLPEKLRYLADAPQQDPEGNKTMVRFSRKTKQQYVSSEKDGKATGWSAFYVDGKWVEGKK

SMILES: CNCCCC[C@@H](CN)NC[C@H](CCCCNC)NCCCc1cccc(Br)c1 [Compound 2471-1]
- pIC50 (E. coli topoisomerase I): 3.80

SMILES: CNCCCC[C@@H](CN)NC[C@H](CCCNC(=N)N)NCCCc1cccc(Br)c1 [Compound 2471-4]
- pIC50 (E. coli topoisomerase I): 3.80

SMILES: CNCCCC[C@@H](CN)NC[C@H](CCCNC(=N)N)NCCCc1ccc(O)c(O)c1 [Compound 2471-5]
- pIC50 (E. coli topoisomerase I): < 3.80

SMILES: CCC[C@H](CN[C@H](CN)CCCCNC)NCCCc1cccc(Br)c1 [Compound 2471-7]
- pIC50 (E. coli topoisomerase I): 3.80

SMILES: CCC[C@H](CN[C@H](CN)CCCCNC)NCCCc1ccc(O)c(O)c1 [Compound 2471-8]
- pIC50 (E. coli topoisomerase I): < 3.80

SMILES: CCCC[C@@H](CN[C@H](CN)CCCCNC)NCCCc1cccc(Br)c1 [Compound 2471-10]
- pIC50 (E. coli topoisomerase I): 3.80

SMILES: CCCC[C@@H](CN[C@H](CN)CCCCNC)NCCCc1ccc(O)c(O)c1 [Compound 2471-11]
- pIC50 (E. coli topoisomerase I): < 3.80

SMILES: CNCCCC[C@@H](CN[C@H](CN)CCCN)NCCCc1cccc(Br)c1 [Compound 2471-13]
- pIC50 (E. coli topoisomerase I): 3.80

SMILES: CNCCCC[C@@H](CN[C@H](CN)CCCN)NCCCc1ccc(O)c(O)c1 [Compound 2471-14]
- pIC50 (E. coli topoisomerase I): < 3.80

SMILES: N=C(N)NCCC[C@@H](CN[C@H](CN)CCCN)NCCCc1ccc(O)c(O)c1 [Compound 2471-17]
- pIC50 (E. coli topoisomerase I): < 3.80

SMILES: CCC[C@H](CN[C@H](CN)CCCN)NCCCc1cccc(Br)c1 [Compound 2471-19]
- pIC50 (E. coli topoisomerase I): 3.80

SMILES: CCC[C@H](CN[C@H](CN)CCCN)NCCCc1ccc(O)c(O)c1 [Compound 2471-20]
- pIC50 (E. coli topoisomerase I): < 3.80

SMILES: CCCC[C@@H](CN[C@H](CN)CCCN)NCCCc1cccc(Br)c1 [Compound 2471-22]
- pIC50 (E. coli topoisomerase I): 3.80

SMILES: CCCC[C@@H](CN[C@H](CN)CCCN)NCCCc1ccc(O)c(O)c1 [Compound 2471-23]
- pIC50 (E. coli topoisomerase I): < 3.80

SMILES: CNCCCC[C@H](CN)NC[C@H](CCCCNC)NCCCc1cccc(Br)c1 [Compound 2471-25]
- pIC50 (E. coli topoisomerase I): 3.80

SMILES: CNCCCC[C@H](CN)NC[C@H](CCCNC(=N)N)NCCCc1ccc(O)c(O)c1 [Compound 2471-29]
- pIC50 (E. coli topoisomerase I): 3.92

SMILES: CCC[C@H](CN[C@@H](CN)CCCCNC)NCCCc1cccc(Br)c1 [Compound 2471-31]
- pIC50 (E. coli topoisomerase I): 3.80

SMILES: CCC[C@H](CN[C@@H](CN)CCCCNC)NCCCc1ccc(O)c(O)c1 [Compound 2471-32]
- pIC50 (E. coli topoisomerase I): < 3.80

SMILES: CCCC[C@@H](CN[C@@H](CN)CCCCNC)NCCCc1cccc(Br)c1 [Compound 2471-34]
- pIC50 (E. coli topoisomerase I): 3.80

SMILES: CCCC[C@@H](CN[C@@H](CN)CCCCNC)NCCCc1ccc(O)c(O)c1 [Compound 2471-35]
- pIC50 (E. coli topoisomerase I): < 3.80

SMILES: CCCC[C@H](CN[C@H](CN)CC1CCCCC1)NCC1CCC(C(C)(C)C)CC1 (some centres unmarked) [Compound 2471-50]
- pIC50 (E. coli topoisomerase I): 3.80

SMILES: CCCC[C@H](CN[C@H](CN)CC1CCCCC1)NCCCCCC1CCCCC1 [Compound 2471-51]
- pIC50 (E. coli topoisomerase I): 3.80

SMILES: CNCCC[C@@H](CN[C@H](CN)CC1CCCCC1)NCCCc1cc(C(F)(F)F)cc(C(F)(F)F)c1 [Compound 2471-52]
- pIC50 (E. coli topoisomerase I): 3.80

SMILES: CNCCC[C@@H](CN[C@H](CN)CC1CCCCC1)NCC1CCC(C(C)(C)C)CC1 (some centres unmarked) [Compound 2471-53]
- pIC50 (E. coli topoisomerase I): < 3.80

SMILES: CNCCC[C@@H](CN[C@H](CN)CC1CCCCC1)NCCCCCC1CCCCC1 [Compound 2471-54]
- pIC50 (E. coli topoisomerase I): < 3.80

SMILES: CNCCC[C@H](CN[C@H](CN)CC1CCCCC1)NCCCc1cc(C(F)(F)F)cc(C(F)(F)F)c1 [Compound 2471-55]
- pIC50 (E. coli topoisomerase I): 3.80

SMILES: CNCCC[C@H](CN[C@H](CN)CC1CCCCC1)NCC1CCC(C(C)(C)C)CC1 (some centres unmarked) [Compound 2471-56]
- pIC50 (E. coli topoisomerase I): 3.80

SMILES: CNCCC[C@H](CN[C@H](CN)CC1CCCCC1)NCCCCCC1CCCCC1 [Compound 2471-57]
- pIC50 (E. coli topoisomerase I): 3.80

SMILES: CCCC[C@H](CN[C@@H](CN)CC1CCCCC1)NCC1CCC(C(C)(C)C)CC1 (some centres unmarked) [Compound 2471-62]
- pIC50 (E. coli topoisomerase I): 3.80

SMILES: CCCC[C@H](CN[C@@H](CN)CC1CCCCC1)NCCCCCC1CCCCC1 [Compound 2471-63]
- pIC50 (E. coli topoisomerase I): 3.80

SMILES: CNCCC[C@@H](CN[C@@H](CN)CC1CCCCC1)NCCCc1cc(C(F)(F)F)cc(C(F)(F)F)c1 [Compound 2471-64]
- pIC50 (E. coli topoisomerase I): 3.80

SMILES: CNCCC[C@@H](CN[C@@H](CN)CC1CCCCC1)NCC1CCC(C(C)(C)C)CC1 (some centres unmarked) [Compound 2471-65]
- pIC50 (E. coli topoisomerase I): 3.80

SMILES: CNCCC[C@@H](CN[C@@H](CN)CC1CCCCC1)NCCCCCC1CCCCC1 [Compound 2471-66]
- pIC50 (E. coli topoisomerase I): 3.80

SMILES: CNCCC[C@H](CN[C@@H](CN)CC1CCCCC1)NCCCc1cc(C(F)(F)F)cc(C(F)(F)F)c1 [Compound 2471-67]
- pIC50 (E. coli topoisomerase I): 3.80

SMILES: CNCCC[C@H](CN[C@@H](CN)CC1CCCCC1)NCC1CCC(C(C)(C)C)CC1 (some centres unmarked) [Compound 2471-68]
- pIC50 (E. coli topoisomerase I): 3.80

SMILES: CC(C)(C)C1CCC(CN[C@H](CN[C@@H](CN)CC2CCCCC2)Cc2ccc(F)cc2)CC1 (some centres unmarked) [Compound 2471-71]
- pIC50 (E. coli topoisomerase I): 4.40

SMILES: CCC[C@H](CN)NC[C@@H](CCCNC(=N)N)NCCc1cccc2ccccc12 [Compound 2580-3]
- pIC50 (Human topoisomerase I): < 4.10
- pIC50 (E. coli DNA gyrase; [2]): < 4.10
- pIC50 (Human Topoisomerase IIα): < 4.10
- pIC50 [1]: 5.22

SMILES: CNCCC[C@H](CN)NC[C@@H](CCCNC(=N)N)NCCc1cccc2ccccc12 [Compound 2580-15]
- pIC50 (Human topoisomerase I): < 4.05
- pIC50 (E. coli DNA gyrase; [2]): < 4.05
- pIC50 (Human Topoisomerase IIα): < 4.05
- pIC50 [1]: 6.14

SMILES: CCCC[C@H](CN[C@@H](CN)CCCNC)NCCc1cccc2ccccc12 [Compound 2580-18]
- pIC50 (Human topoisomerase I): < 4.00
- pIC50 (E. coli DNA gyrase; [2]): < 4.00
- pIC50 (Human Topoisomerase IIα): < 4.00
- pIC50 [1]: 5.49

SMILES: CNCCC[C@H](CN)NC[C@@H](Cc1ccc2ccccc2c1)NCCc1cccc2ccccc12 [Compound 2580-24]
- pIC50 (Human topoisomerase I): < 4.07
- pIC50 (E. coli DNA gyrase): < 4.07
- pIC50 (Human Topoisomerase IIα): < 4.07
- pIC50 [1]: 5.10

SMILES: CNCCC[C@@H](CN[C@@H](CN)Cc1ccc2ccccc2c1)NCCc1cccc2ccccc12 [Compound 2580-33]
- pIC50 (Human topoisomerase I): < 4.07
- pIC50 (E. coli DNA gyrase): < 4.07
- pIC50 (Human Topoisomerase IIα): < 4.07
- pIC50 [1]: 5.10
